From publication PMC10892719 (Pharmaceutics, 2024)

What was measured:
SH-SY5Y cells = test: Cell viability dose-response screening, MTT; format: cell-based, human
Experimental: Cell viability, following treatment with the compounds, was determined using the colorimetric MTT (3-(4,5-dimethylthiazol-2-yl)-2,5-diphenyltetrazolium bromide) assay. The tested compounds (5a1-3, 5b1-3, 5c1-3) were dissolved in DMSO to produce stock solutions of 25 mM and stored at −20 °C. A concentration screening was performed for 0.5 µM to 20 µM final concentrations to choose the highest nontoxic concentration. SH-SY5Y human neuroblastoma cell line (ATCC-CRL-2266) was cultured in Dulbecco’s modified Eagle’s medium (DMEM) (Gibco-Invitrogen, Life Technologies Ltd., Waltham, MA, USA) with heat-inactivated fetal calf serum (10%), penicillin (50 U/mL) and streptomycin (50 µg/mL) at 37 °C with 5% CO2. Cells were plated at 0.15 × 10^6 cells/mL one day prior to the start of the experiment. The cells were then incubated with the appropriate concentration of the compounds for 24 h. After the incubation period, the cells were washed once with PBS and incubated with 200 µL MTT (0.5 mg/mL) for 2 h at 37 °C with 5% CO2. During this period, cellular dehydrogenase successfully metabolized MTT into formazan, which was then solubilized using 200 µL of 0.04 M HCl/isopropanol. Absorbance was measured at 570 nm.
The new RIV-IND hybrids were tested to determine their protective role in the toxicity induced by either Aβ1-42 peptides or iron/ascorbate. SH-SY5Y cells were incubated with a set of concentrations of each of the compounds and a dose–response curve was constructed to select the highest nontoxic concentration.
Figure 3 Dose–response screening of RIV-IND compounds 5a1-3, 5b1-3 and 5c1-3 measured by MTT reduction ability on SH-SY5Y cells treated with different concentrations of the compounds for 24 h. Results are expressed relatively to untreated cells, with the mean ± standard error of the mean (SEM) derived from three independent experiments. * p < 0.05; ** p < 0.01; *** p < 0.001 compared to untreated cells. (The dot line indicates 100% cellular viability).

Aβ1-42 = biological target: T1, Aβ1-42 (Homo sapiens, UniProt P05067); test: Inhibition of Aβ1-42 self-aggregation, thioflavin T fluorescence; format: biochemical; details: Cinhibitor = 20 µM, Aβ1-42 40 µM, 37 °C, 24 h, read-out: Aβ42 Self-Aggreg. Inhib
T1 construct: purchased Genecust, Boynes, France
Experimental: The Aβ peptide (Genecust, Boynes, France) was treated with 1,1,1,3,3,3-hexafluoropropan-2-ol (HFIP, Aldrich, Steinheim, Germany) and dissolved in a CH3CN/Na2CO3 (300 µM)/NaOH (250 µM) ([…], v/v/v) mixture in order to have a stable stock solution of Aβ1-42 with concentration 500 µM.
Solutions of the assayed compounds (0.5 mg/mL) were firstly prepared in 60% (v/v) DMSO/MeOH medium and then diluted in phosphate buffer (0.215 M, pH 8.0) to a concentration of 120 µM. The Aβ1-42 aggregation inhibition assays were performed according to a reported method based on the fluorescence emission of thioflavin T (ThT, Aldrich Steinheim, Germany). Therefore, Aβ1-42 (40 µM) was incubated at 37 °C for 24 h in phosphate buffer and in the presence or absence of each ligand (20 µM). Then, the samples were added to a 96-well plate with 180 µL of 5 µM ThT in 50 mM glycine-NaOH (pH 8.5) buffer. Blank samples were identically prepared for each concentration but in the absence of the peptide. The ThT fluorescence was measured at 445 nm (excitation) and 485 nm (emission). The percent of aggregation inhibition was calculated by the following equation:I% = 100 − (IFi/IF0 × 100), in which IFi and IF0 are the fluorescence intensities, in the presence and the absence of the tested compound, subtracted from the fluorescence intensities due to the respective blanks. The reported values were obtained as the mean ± SEM of two different experiments performed in duplicate.
The inhibitory capacity of the RIV-IND hybrids towards Aβ42 self-aggregation was evaluated in vitro by molecular fluorescence spectroscopy through the thioflavin T (ThT) method. In fact, since there is an increase in the absorbance and emission of ThT when it binds to amyloid fibrils, it is possible to determine the percent of Aβ42 self-aggregation (see Table 1). The assays were performed in the presence of 20 µM of inhibitor to overcome the solubility limitations of some compounds in the phosphate buffer aqueous medium.

T1 sequence (P05067 672-713 limits assumed): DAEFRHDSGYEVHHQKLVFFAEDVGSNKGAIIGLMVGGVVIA

Structure (SMILES) | highest nontoxic concentration (SH-SY5Y cells; 24 h, screening 0.5 µM to 20 µM) [µM] | inhibition at 20 µM (Aβ1-42) [%] | highest nontoxic concentration (SH-SY5Y cells; when used with Aβ1-42) [µM] | highest nontoxic concentration (SH-SY5Y cells; when used with iron/ascorbate) [µM]
CCN(C)C(=O)Oc1cccc(NC(=O)c2cc3cccc(O)c3[nH]2)c1 [Compound 5a3, 3-(7-Hydroxy-1H-indole-2-carboxamido)phenyl ethyl(methyl)carbamate] | 2.5 | 50.3 | – | –
CCN(C)C(=O)Oc1cccc(CNC(=O)c2cc3ccccc3[nH]2)c1 [Compound 5b1, 3-((1H-indole-2-carboxamido)methyl)phenyl ethylmethylcarbamate] | – | 19.9 | 2.5 | 1
